Reference: patent US20250312303A1, “ANTICANCER AGENT” (AGC Inc., priority 2022, published 2025)

Columns and labels:
[1] = tested on: HeLa cells; test: SRB assay, relative cell proliferation rate of HeLa cells; assay type: cell-based
Excerpt: (§1) HeLa cells and PANC-1 cells were used as the cancer cells. Both these cells were obtained from ATCC. Further, NHDF cells obtained from Lonza Group Ltd. were used as control non-cancer cells. The culture mediums used were Dulbecco's Modified Eagle Medium (D-MEM, manufactured by FUJIFILM Wako Pure Chemical Corporation) to which 10% FBS had been added (hereinafter also referred to as the “normal medium”), a medium prepared by removing leucine from D-MEM and adding 10% FBS (hereinafter also referred to as the “Leu-removed medium”), and a medium prepared by removing valine from D-MEM and adding 10% FBS (hereinafter also referred to as the “Val-removed medium”).
(§2) The culture cells were inoculated into a 96-well culture plate at a concentration of 3×10^3 cells/well, and following adhesion, were cultured for 24, 48 or 72 hours in the normal medium, the Leu-removed medium or Val-removed medium, or a medium prepared by adding the fluorine-containing amino acid to the Leu-removed medium or Val-removed medium in an amount sufficient to achieve a final concentration of 0.8 mM. Following culturing, the cell proliferation rate was measured by SRB assay. As a control, the cell proliferation rate was measured in a similar manner for cells having a culture time of 0 hours.
(§3) The SRB assays were conducted in the following manner. Following cell culturing, the medium was removed, and 10% (wt/vol) of trichloroacetic acid was added to fix the cells. Subsequently, the fixed cells were washed three times with tap water, and then stained by adding a solution containing 0.4% (wt/vol) of sulforhodamine B dissolved in 1% acetic acid. Following subsequent washing three times with a 1% acetic acid solution, a 10 mM Tris solution was added, and the light absorbance at 540 nm was measured. The 540 nm absorbance value for each sample was used to indicate the cell quantity, and for each sample, the relative cell proliferation rate (%) at a culture time of X hours was determined using the formula below.
(§4) SRB assays were conducted in the same manner as Example 1 with the exceptions of using a medium prepared by removing glutamine from D-MEM and adding 10% FBS (hereinafter also referred to as the “Gln-removed medium”) as the culture medium instead of the Leu-removed medium, using monofluoroglutamine ((2S,4S)Gln(1F) or (2S,4R)Gln(1F)) as the fluorine-containing amino acid, and altering the amount of monofluoroglutamine added to the Gln-removed medium to an amount sufficient to achieve a final concentration of 4 mM.
(§5) SRB assays were conducted in the same manner as Example 1 with the exceptions of using the Gln-removed medium as the culture medium instead of the Leu-removed medium, using difluoroglutamine as the fluorine-containing amino acid, and altering the amount of difluoroglutamine added to the Gln-removed medium to an amount sufficient to achieve a final concentration of 4 mM.

[2] = tested on: HeLa cells; test: Tumor volume of subcutaneously transplanted HeLa cells in SCID/SCID mice; assay type: in vivo; conditions: for Tumor volume: 5 mg/kg intraperitoneally every day for two weeks starting day 7; for Increase in the size of the tumor tissue compared with the control group: HeLa tumor-bearing SCID/SCID mice, 5 mg/kg intraperitoneally every day for two weeks, result in words
Method: First, 0.1 mL samples of an HeLa cell solution with a concentration of 1.0×10^7 cells/mL were transplanted beneath the skin of SCID/SCID (immunodeficient) mice. Starting 7 days after the HeLa cell transplantation, PBS (control group), leucine (5 mg/kg mouse bodyweight) or trifluoroleucine (5 mg/kg mouse bodyweight) was administered intraperitoneally every day for two weeks. The growth of the tumor tissue was observed over time from the time of HeLa transplantation, and the tumor volume (mm^3) was calculated. The tumor volume (mm^3) was calculated from the major diameter (mm) of the tumor tissue and the minor diameter (mm) of the tumor tissue using the formula shown below.
With the exceptions of using monofluoroisoleucine or 5-fluoro-5-methyl-norleucine (CAS RN: 1361228-49-0) instead of the trifluoroleucine, and starting the administration of the PBS, 5-fluoro-5-methyl-norleucine or monofluoroisoleucine 11 days after rather than 7 days after the HeLa cell transplantation, the same procedure as (1) above was used to measure the volume (mm^3) of the tumor formed by the subcutaneously transplanted HeLa cells over time.
(§6) First, 0.1 mL samples of an HeLa cell solution with a concentration of 1.0×10^7 cells/mL were transplanted beneath the skin of SCID/SCID (immunodeficient) mice. Starting 7 days after the HeLa cell transplantation, PBS (control group), glutamine (Gln) (5 mg/kg mouse bodyweight), (2S,4S)Gln(1F) (5 mg/kg mouse bodyweight) or (2S,4R)Gln(1F) (5 mg/kg mouse bodyweight) was administered intraperitoneally every day for two weeks. The growth of the tumor tissue was observed over time from the time of HeLa cell transplantation, and the tumor volume (mm^3) was calculated. The tumor volume (mm^3) was determined in the same manner as that described in Example 2.
as §6, with “mouse bodyweight), or di-F-Gln(F)” for “mouse bodyweight), (2S,4S)Gln(1F) (5 mg/kg mouse bodyweight) or (2S,4R)Gln(1F)”, “bodyweight), or di-F-Gln(F) (5 mg/kg” for “bodyweight) or (2S,4R)Gln(1F) (5 mg/kg”, “of HeLa transplantation, and” for “of HeLa cell transplantation, and”

[3] = tested on: NHDF cells; test: SRB assay, relative cell proliferation rate of NHDF cells (control non-cancer cells); assay type: cell-based
Excerpt: as §1, §2, §3, §4

[4] = tested on: PANC-1 cells; test: SRB assay, relative cell proliferation rate of PANC-1 cells; assay type: cell-based
Excerpt: as §1, §2, §3, §4, §5

[5] = Leu-removed medium + 0.8 mM amino acid, culture time 24 h
[6] = Leu-removed medium + 0.8 mM amino acid, culture time 48 h
[7] = Leu-removed medium + 0.8 mM amino acid, culture time 72 h, hydrochloride
[8] = 7 days since HeLa cell transplantation
[9] = 14 days since HeLa cell transplantation
[10] = 21 days since HeLa cell transplantation
[11] = Gln-removed medium + 4 mM amino acid, culture time 24 h
[12] = Gln-removed medium + 4 mM amino acid, culture time 48 h
[13] = Gln-removed medium + 4 mM amino acid, culture time 72 h

## CC(CC(N)C(=O)O)C(F)(F)F.Cl (centres unmarked) [Leu(3F), 2-amino-5,5,5-trifluoro-4-methylpentanoic acid hydrochloride]
[1]; [5]
  Relative cell proliferation rate of HeLa cells: 78.5%
[1]; [6]
  Relative cell proliferation rate of HeLa cells: 91.6%
[1]; [7]
  Relative cell proliferation rate of HeLa cells: 89.5%
[2]; [8]
  Tumor volume: 135.6 mm^3
[2]; 10 days since HeLa cell transplantation
  Tumor volume: 169.4 mm^3
[2]; 12 days since HeLa cell transplantation
  Tumor volume: 204.1 mm^3
[2]; [9]
  Tumor volume: 200.6 mm^3
[2]; 17 days since HeLa cell transplantation
  Tumor volume: 315.3 mm^3
[2]; 19 days since HeLa cell transplantation
  Tumor volume: 460.2 mm^3
[2]; [10]
  Tumor volume: 704.0 mm^3
[2]
  Increase in the size of the tumor tissue compared with the control group: dramatically inhibited
[3]; [5]
  Relative cell proliferation rate of NHDF cells: 138.5%
[3]; [6]
  Relative cell proliferation rate of NHDF cells: 138.2%
[3]; [7]
  Relative cell proliferation rate of NHDF cells: 185.6%
[3]; Leu-removed medium + 0.8 mM amino acid, culture time 72 h, listed as trifluoroleucine, hydrochloride
  Relative cell proliferation rate of NHDF cells: ~200%
[4]; [5]
  Relative cell proliferation rate of PANC-1 cells: 77.1%
[4]; [6]
  Relative cell proliferation rate of PANC-1 cells: 87.0%
[4]; [7]
  Relative cell proliferation rate of PANC-1 cells: 75.5%

## NC(=O)[C@H](F)C[C@H](N)C(=O)O [(2S,4R)-Gln(1F)]
[1]; [11]
  Relative cell proliferation rate of HeLa cells: 46.8%
[1]; [12]
  Relative cell proliferation rate of HeLa cells: 21.5%
[1]; [13]
  Relative cell proliferation rate of HeLa cells: 23.1%
[2]; [8]
  Tumor volume: 74.6 mm^3
[2]; 9 days since HeLa cell transplantation
  Tumor volume: 101.6 mm^3
[2]; 11 days since HeLa cell transplantation
  Tumor volume: 147.2 mm^3
[2]; [9]
  Tumor volume: 219.1 mm^3
[2]; 16 days since HeLa cell transplantation
  Tumor volume: 287.0 mm^3
[2]; 18 days since HeLa cell transplantation
  Tumor volume: 307.7 mm^3
[2]; [10]
  Tumor volume: 431.4 mm^3
[2]
  Increase in the size of the tumor tissue compared with the control group: dramatically inhibited
[3]; [11]
  Relative cell proliferation rate of NHDF cells: 132.5%
[3]; [12]
  Relative cell proliferation rate of NHDF cells: 46.5%
[3]; [13]
  Relative cell proliferation rate of NHDF cells: 26.3%
[4]; [11]
  Relative cell proliferation rate of PANC-1 cells: 65.0%
[4]; [12]
  Relative cell proliferation rate of PANC-1 cells: 34.7%
[4]; [13]
  Relative cell proliferation rate of PANC-1 cells: 25.7%
